Measurements published in patent US4808609A, “Amino-(hydroxy)alkoxy-4-phenylpropyl indoles having antiarrythmic activity” (Roussel Uclaf, priority 1985, dated 1989).

Assays:
mice = test: Study of the acute toxicity (oral, mice); type: in vivo
Description: The lethal doses LD0 were evaluated for the different compounds tested after oral administration to mice.

[1] = system: disturbances of the cardiac rhythm (aconitine); test: Anti-arrhythmic activity in the rat (aconitine-induced cardiac rhythm disturbances); type: in vivo
Description: Male rats weighing 300-350 g anesthetized intraperitoneally with 1.20 g/kg of urethane were tracheotomized and subjected to artificial respiration (40-50 breaths of 3 ml/minute). Needles were implanted subcutaneously to record the eletrocardiogram of the rats on the derivation signal DII. The products under test were administered intravenously or orally. Five minutes after the administration of the product intravenously or 1 hour after administration orally, the jugular vein of the rats was perfused with 10 μg/min. of an aconitine solution and the time was noted of the appearance of disturbances of the cardiac rhythm (10 μg of aconitine corresponding to the perfusion of a volume of 0.2 ml of solution. The results were expressed as a percentage of the extension of the time of appearance of the cardiac rhythm disturbances as compared to controls and as a function of the dose of the product under test.

Caudal arteries of rats = test: Anti-calcic activity in vitro (inhibition of K+ depolarization contraction of caudal arteries of rats); type: cell-based; settings: rat caudal artery spirals, 100 mM K+, Ca2+ 0.1 to 3.0 mM, 37° C.; read-out: IC 50 (inhibits by 50% the contraction due to the K+ ions)
Description: Caudal arteries of rats were cut into spirals and attached to tension indicators and were kept in tanks of 25 ml of Krebs buffer-sodium bicarbonate (NaCl: 120.8 mM, KCl: 5.9 mM, MgCl2 : 1.2 mM, NaH2 PO4 : 1.2 mM, NaHCO3 : 15.5 mM, glucose: 12.6 mM) at 37° C. gassed with a mixture of O2 : 95%--CO2 --5%. The preparations were depolarized by a buffer solution with a concentration of 100 mM of K^+ ions (NaCl: 26.7 mM, KCl: 100 mM, MgCl2 1.2 mM, NaH2 PO4 : 1.3 mM, NaHCO3 : 15.5 mM, glucose: 12.6 mM).
250 μl of solutions of calcium chloride were added so that an increasing range of concentrations of Ca^2+ ions going from 0.1 to 3.0 mM was obtained. The contractions of the arteries were recorded and in this way a control range was established. The operation was repeated with the range of Ca^2+ ions every 15 minutes, and the preparation was washed four times after each range. When a stable response was obtained, the operation was carried out with the ranges of Ca^2+ ions in the presence of different concentrations of the product under test until a stable response was obtained.
The contractions of the arteries depend on the entry of the Ca^2+ ions into the cells of the smooth muscles and they are caused by the depolarization of the smooth muscle by the K^+ ions by the action of the noradrenaline liberated at the presynaptic level. By repeating the operation with the arteries denervated by the action of 6-OH dopamine, the action due to the noradrenaline alone is suppressed.
The results are expressed in IC 50 (inhibiting concentration 50) which is the concentration of the product under test which inhibits by 50% the contraction due to the K^+ ions.

[2] = IV, 0.5 mg/kg, aconitine five minutes after administration
[3] = oral, 10 mg/kg, aconitine 1 hour after administration
[4] = IV, 2.5 mg/kg, aconitine five minutes after administration

Structure (SMILES): CC(C)(C)NCC(O)COc1ccccc1C(=O)CCc1cccc2[nH]ccc12 (stereo not shown) [Example 1, (E) butenedioate (1,2) of 1-[2-[3-(1,1-dimethylethylamino)-2-hydroxypropoxy]-phenyl]-3-(1H-indol-4-yl)-1-propanone]
- LD0 (maximum dose which does not cause any mortality in 8 days) (mice): 100 mg/kg
- % extension of time of appearance of cardiac rhythm disturbances [1, 2]: 28%
- % extension of time of appearance of cardiac rhythm disturbances ([1]; oral, 5 mg/kg, aconitine 1 hour after administration): 41%
- % extension of time of appearance of cardiac rhythm disturbances [1, 3]: 39%
- % extension of time of appearance of cardiac rhythm disturbances ([1]; oral, 25 mg/kg, aconitine 1 hour after administration): 142%
- IC50 (Caudal arteries of rats): 0.4 µM

Structure (SMILES): CCCNCC(O)COc1ccccc1C(=O)CCc1cccc2[nH]ccc12 (stereo not shown) [Example 2, (E) butenedioate (1,2) 1-[2-[2-hydroxy-3-propylamino-propoxy]-phenyl]-3-(1H-indol-4-yl)-1-propanone]
- LD0 (maximum dose which does not cause any mortality in 8 days) (mice): 100 mg/kg
- % extension of time of appearance of cardiac rhythm disturbances ([1]; IV, 1 mg/kg, aconitine five minutes after administration): 32%
- IC50 (Caudal arteries of rats): 3.8 µM

Structure (SMILES): CC(C)(C)NCC(O)COc1ccccc1C(=O)CCc1cccc2c1CC(=O)N2 (stereo not shown) [Example 5, 1,3-dihydro-4-[3-[2-[3-(1,1-dimethylethylamino)-2-hydroxypropoxy]-phenyl]-3-oxo-propyl]-2H-indol-2-one]
- LD0 (maximum dose which does not cause any mortality in 8 days) (mice): > 400 mg/kg
- % extension of time of appearance of cardiac rhythm disturbances [1, 2]: 66%
- % extension of time of appearance of cardiac rhythm disturbances [1, 3]: 47%

Structure (SMILES): CCCNCC(O)COc1ccccc1C(=O)CCc1cccc2c1CC(=O)N2 (stereo not shown) [Example 6, 1,3-dihydro-4-[3-oxo-3-[2-(2-hydroxy-3-propylamino-propoxy)-phenyl]-propyl]-2H-indol-2-one]
- LD0 (maximum dose which does not cause any mortality in 8 days) (mice): 100 mg/kg
- % extension of time of appearance of cardiac rhythm disturbances ([1]; IV, 0.25 mg/kg, aconitine five minutes after administration): 31%
- IC50 (Caudal arteries of rats): 3.6 µM

Structure (SMILES): CC(C)(C)NCC(O)COc1ccccc1CCCc1cccc2[nH]ccc12 (stereo not shown) [Example 7, 1-(1,1-dimethylethylamino)-3-[2-[3-(1H-indol-4-yl)-propyl]-phenoxy]-2-propanol]
- LD0 (maximum dose which does not cause any mortality in 8 days) (mice): > 400 mg/kg
- % extension of time of appearance of cardiac rhythm disturbances [1, 4]: 41%
- IC50 (Caudal arteries of rats): 0.64 µM

Structure (SMILES): CCCNCC(O)COc1ccccc1CCCc1cccc2[nH]ccc12 (stereo not shown) [Example 8, 1-[2-[3-(1H-indol-4-yl)-propyl]-phenoxy]-3-propylamino-2-propanol]
- LD0 (maximum dose which does not cause any mortality in 8 days) (mice): > 400 mg/kg
- % extension of time of appearance of cardiac rhythm disturbances [1, 4]: 25.5%
- IC50 (Caudal arteries of rats): 1.4 µM

Structure (SMILES): CCCNCC(O)COc1ccccc1CCCc1cccc2c1CC(=O)N2 (stereo not shown) [Example 9, 1,3-dihydro-4-[3-[2-[2-hydroxy-3-propylamino-propoxy]-phenyl]-propyl]-2H-indol-2-one]
- % extension of time of appearance of cardiac rhythm disturbances [1, 2]: 45%
